Experimental data from US5919374A, “Method of disinfecting water with iodine species” (Iosolutions Incorporated, priority 1997, dated 1999).
Read-outs that look alike come from different tables or passages of the source.

Key:
[1] = Concentration of iodine species in water leaving the crystalline iodine generators; format: physicochemical; conditions: pH 6-8, flow about 200 ml/minute
Protocol: Artesian water is fed through inlet conduit 8 past shut-off valve 10 through preconditioner 12 at a flow rate of not less than 2 l. per minute and not more than about 50 l. per minute preferably on average about 10 l. per minute at a pH 6-8, […] Main flow water passes through conduit 14 where some of the main flow is diverted to iodine generator assembly 15 through conduit 16 at a flow rate of about 200 ml/minute. The rest of the main flow flows through flow restrictor disk 20 such that an absolute pressure drop of about 2 psi is generated across flow restrictor disk 20. Flow restrictor 20 governs the rate of flow of diverted main flow which ultimately reaches iodine generator assembly 15. The main flow now proceeds through flow switch 22, such that, at a pre-set flow rate exceeding 2 l per minute, the flow switch 22 generates an electrical impulse which is fed to dual action solenoid valve 24. Such an impulse is continuous and causes solenoid valve 24 to open and remain so, as long as the flow rate is maintained above 2 l per minute. The rest of the main flow continues through conduit 14 uninterrupted until iodine liquor is blended back into the main flow at iodine species liquor injection port 44. […]

E. coli = conditions: cited from earlier work
[2] = system: E. coli fecal streptococci; conditions: cited from earlier work
bacteria = conditions: pHs 5-7; cited from earlier work
chickens [3] = conditions: cited from earlier work
[4] = crystalline iodine in water; cited from earlier work
chickens [5] = test: Safe consumption of residual iodine by chickens
viruses = conditions: higher pHs, e.g. 7-10; cited from earlier work
[6] = above pH 8, especially in the presence of dissolved iodides; Chang (1); cited from earlier work

Row | Structure (SMILES) | concentration of iodine species concentrate ([1]; first iodine generator, about 20° C.) | concentration of resultant (saturated) iodine liquor ([1]; second iodine generator, about 28° C.) | % Kill (E. coli) [%] | concentration by which E coli is effectively killed (E. coli) | % Kill ([2]; Black et al., 1968, 18 C., contact time 1 min, 0.5 ppm I2) [%] | % Kill ([2]; Ellis et al., 1989, 20 C., contact time 30 min, avg. 4 ppm I2) [%] | antibacterial action (bacteria) | LD50 (chickens [3]) | solubility in water versus temperature [4] | concentration of residual iodine chickens could safely consume (chickens [5]) | virucidal action (viruses) | decomposition to iodide and iodate ions [6]
1 | II [iodine] | 200-240 ppm | 280-320 ppm | 99.99 | 1-10 ppm | 99.99 | 99.99 | exhibits antibacterial action | about 625 ppm | directly proportional to the temperature of the water | about 2 ppm | – | –
2 | OI [HOI, hypoiodous acid] | – | – | – | – | – | – | – | – | – | – | efficient virucide | decomposes slowly
